System: HVT
Test: Growth and plaque formation of HVT in CEF in the presence of AraT
Assay type: cell-based, herpesvirus of turkeys (HVT)
From the text: In HSV-infected cells, ¹²⁵IdC is incorporated into DNA only after it has been phosphorylated by the viral TK as described by Summers and Summers, J. Virol. 24: 314-318 (1977), specifically incorporated herein by reference. Moreover, growth of HVT in CEF is inhibited by the drug AraT, whereas uninfected CEF appears to be unaffected. AraT (1-beta-D-arabinofuranosyl-thymine obtained from Calbiochem) is lethal to cells only once it is incorporated into the DNA where it acts as a chain-terminator. Again by analogy to HSV, AraT-resistance is likely to be due to mutations in the thymidine kinase gene.
AraT-resistant variants occur spontaneously in populations of FC126, and are isolated by growing cell-free virus as described by Calnek et al., Avian Dis. 16:52-56 (1972), specifically incorporated herein by reference, in CEF in the presence of 100 ug/ml AraT. Specifically, 150 mm tissue culture dishes are seeded with 2 X 10⁷ cells of secondary CEF. Two hours later the medium is removed, and 2 X 10⁴ pfu of cell-free HVT are adsorbed for 30 minutes. After adsorption, 30 ml of medium containing 100 ug/ml of AraT is added. Cells are fluid-changed every two days, always with AraT, and monolayers are screened for plaques 4-5 days post-infection at 40-fold magnfication using an inverted microscope. One AraT-resistant variant ATR° was found in 2 X 10⁵ pfu screened initially. Subsequent experiments have yielded AraT resistant HVT at least that frequency. ATR° remains stable for at least nine passages in the absence of AraT.
In addition, wild-type HVT has a growth advantage over the AraT-resistant variants. These differences between the wild-type HVT and HVT that are AraT-resistant, form the basis for a marker-rescue assay that allows for the identification of the region of DNA, and thus the gene which confers resistance to AraT. DNA from the AraT resistant HVT (10 ug of total infected-cell DNA) is co-transfected with individual DNA clones (200 ng of plasmid DNA or 1 ug of phage DNA) representing the genome of HVT. […]

For `Cc1cn([C@@H]2O[C@H](CO)[C@@H](O)[C@@H]2O)c(=O)[nH]c1=O` [AraT, 1-beta-D-arabinofuranosyl-thymine], the “effect on uninfected CEF” value (AraT, uninfected CEF) was “unaffected”, the “growth of HVT in CEF” value (in the presence of AraT) was “inhibited” and the “plaque-forming ability of wild-type HVT” value (in the presence of AraT) was “completely inhibits”.

Source: EP0351418B1, “VIRAL VECTOR SYSTEM FOR THE INTRODUCTION OF FOREIGN DNA […] INTO GA[…]” (SYNERGEN, INC., priority 1987, dated 1988)
